ChEMBL document CHEMBL1201862, “PubChem BioAssay data set” (2004)
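Growth conditions: 96-well plates. Treatment: test compound, 48 hours, 5 concentrations. Analysis: linear interpolation between bracketing concentrations; unreached endpoints set to highest concentration. At the GI50, growth is halved.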 The source made the active and inactive calls. No stated cut-off is given here; in the data, active = GI50 up to about 1.1 µM and inactive = higher. Residues, ends and D or L forms follow the SMILES beside them. *: point of attachment. Boc = CC(C)(C)OC(=O)*; Bz = O=C(c1ccccc1)*

Experiments:
Experiment in all cases: NCI tumour cell line growth inhibition, 48 h
786-0 = tested on: 786-0
A498 = tested on: A498
A549 = tested on: A549
ACHN = tested on: ACHN
BT-549 = tested on: BT-549
CAKI-1 = tested on: CAKI-1
CCRF-CEM = tested on: CCRF-CEM
COLO 205 = tested on: COLO 205
DU-145 = tested on: DU-145
HCC 2998 = tested on: HCC 2998
HCT-116 = tested on: HCT-116
HCT-15 = tested on: HCT-15
HL-60 = tested on: HL-60
HOP-62 = tested on: HOP-62
HOP-92 = tested on: HOP-92
HT-29 = tested on: HT-29
Hs-578T = tested on: Hs-578T
IGROV-1 = tested on: IGROV-1
K562 = tested on: K562
KM12 = tested on: KM12
LOX IMVI = tested on: LOX IMVI
M14 = tested on: M14
MCF7 = tested on: MCF7
MDA-MB-231 = tested on: MDA-MB-231
MDA-MB-435 = tested on: MDA-MB-435
MDA-N = tested on: MDA-N
MOLT-4 = tested on: MOLT-4
Malme-3M = tested on: Malme-3M
NCI-H226 = tested on: NCI-H226
NCI-H23 = tested on: NCI-H23
NCI-H460 = tested on: NCI-H460
NCI-H522 = tested on: NCI-H522
NCI/ADR-RES = tested on: NCI/ADR-RES
OVCAR-4 = tested on: OVCAR-4
OVCAR-5 = tested on: OVCAR-5
OVCAR-8 = tested on: OVCAR-8
PC-3 = tested on: PC-3
RPMI-8226 = tested on: RPMI-8226
RXF 393 = tested on: RXF 393
SF-268 = tested on: SF-268
SF-295 = tested on: SF-295
SF-539 = tested on: SF-539
SK-MEL-28 = tested on: SK-MEL-28
SK-MEL-2 = tested on: SK-MEL-2
SK-MEL-5 = tested on: SK-MEL-5
SK-OV-3 = tested on: SK-OV-3
SN12C = tested on: SN12C
SNB-19 = tested on: SNB-19
SNB-75 = tested on: SNB-75
SW-620 = tested on: SW-620
T47D = tested on: T47D
TK-10 = tested on: TK-10
U-251 = tested on: U-251
UACC-257 = tested on: UACC-257
UACC-62 = tested on: UACC-62
UO-31 = tested on: UO-31
EKVX = tested on: EKVX
OVCAR-3 = tested on: OVCAR-3
SR = tested on: SR

## CC(NC(=O)C(Cc1ccc(OC(=O)c2ccccc2)cc1)NC(=O)OC(C)(C)C)C(=O)NC(Cc1ccccc1)C(=O)NCC(N)=O (configuration not stated) (Boc-Y(Bz)AFG-NH2; configuration not given here)
786-0
  GI50: 20.3 µM (inactive)
A498
  GI50: 21.6 µM (inactive)
A549
  GI50: 23.4 µM (inactive)
ACHN
  GI50: 23 µM (inactive)
BT-549
  GI50: 19 µM (inactive)
CAKI-1
  GI50: > 100 µM (inactive)
CCRF-CEM
  GI50: 77.8 µM (inactive)
COLO 205
  GI50: 29.1 µM (inactive)
DU-145
  GI50: 20.4 µM (inactive)
HCC 2998
  GI50: 20.2 µM (inactive)
HCT-116
  GI50: 27.5 µM (inactive)
HCT-15
  GI50: 53 µM
HL-60
  GI50: 25.6 µM (inactive)
HOP-62
  GI50: 14.9 µM (inactive)
HOP-92
  GI50: 23.6 µM (inactive)
HT-29
  GI50: 19.1 µM (inactive)
Hs-578T
  GI50: 20.3 µM (inactive)
IGROV-1
  GI50: 20.4 µM (inactive)
K562
  GI50: 25.8 µM (inactive)
KM12
  GI50: 35.8 µM (inactive)
LOX IMVI
  GI50: 22 µM (inactive)
M14
  GI50: 17.9 µM (inactive)
MCF7
  GI50: 19.5 µM (inactive)
MDA-MB-231
  GI50: 19.4 µM (inactive)
MDA-MB-435
  GI50: 21.7 µM (inactive)
MDA-N
  GI50: 25.8 µM (inactive)
MOLT-4
  GI50: 29.3 µM (inactive)
Malme-3M
  GI50: 20.8 µM (inactive)
NCI-H226
  GI50: 20.9 µM (inactive)
NCI-H23
  GI50: 23.2 µM (inactive)
NCI-H460
  GI50: 18.3 µM (inactive)
NCI-H522
  GI50: 17.9 µM (inactive)
NCI/ADR-RES
  GI50: > 100 µM (inactive)
OVCAR-4
  GI50: 20.9 µM (inactive)
OVCAR-5
  GI50: 24.4 µM (inactive)
OVCAR-8
  GI50: 24.7 µM (inactive)
PC-3
  GI50: 18 µM (inactive)
RPMI-8226
  GI50: 24 µM (inactive)
RXF 393
  GI50: 20.9 µM (inactive)
SF-268
  GI50: 19.6 µM (inactive)
SF-295
  GI50: 18.7 µM (inactive)
SF-539
  GI50: 24.9 µM (inactive)
SK-MEL-28
  GI50: 28.7 µM (inactive)
SK-MEL-2
  GI50: 17.9 µM (inactive)
SK-MEL-5
  GI50: 26.3 µM (inactive)
SK-OV-3
  GI50: 19.2 µM (inactive)
SN12C
  GI50: 21.1 µM (inactive)
SNB-19
  GI50: 18.6 µM (inactive)
SNB-75
  GI50: 22.8 µM (inactive)
SW-620
  GI50: 31.1 µM (inactive)
T47D
  GI50: 20.9 µM (inactive)
TK-10
  GI50: 20.8 µM (inactive)
U-251
  GI50: 17.8 µM (inactive)
UACC-257
  GI50: 19.1 µM (inactive)
UACC-62
  GI50: 18.8 µM (inactive)
UO-31
  GI50: 18.8 µM (inactive)

## COC(OC)(c1ccccc1)C(Br)Br
786-0
  GI50: 23.2 µM (inactive)
A498
  GI50: > 100 µM (inactive)
A549
  GI50: > 100 µM (inactive)
ACHN
  GI50: > 100 µM (inactive)
BT-549
  GI50: > 100 µM (inactive)
CAKI-1
  GI50: 24.6 µM (inactive)
CCRF-CEM
  GI50: 13.6 µM (inactive)
COLO 205
  GI50: 17.3 µM (inactive)
DU-145
  GI50: > 100 µM (inactive)
EKVX
  GI50: > 100 µM (inactive)
HCC 2998
  GI50: > 100 µM (inactive)
HCT-116
  GI50: 17.9 µM (inactive)
HCT-15
  GI50: 17.1 µM
HL-60
  GI50: 23.6 µM (inactive)
HOP-62
  GI50: > 100 µM (inactive)
HT-29
  GI50: 57.4 µM (inactive)
Hs-578T
  GI50: 78 µM (inactive)
IGROV-1
  GI50: 50.8 µM (inactive)
K562
  GI50: 13.9 µM (inactive)
KM12
  GI50: > 100 µM (inactive)
LOX IMVI
  GI50: 28.2 µM (inactive)
M14
  GI50: 18.6 µM (inactive)
MCF7
  GI50: 39 µM (inactive)
MDA-MB-231
  GI50: 74.5 µM (inactive)
MDA-MB-435
  GI50: 20.2 µM (inactive)
MDA-N
  GI50: 31.7 µM (inactive)
MOLT-4
  GI50: 16.1 µM (inactive)
Malme-3M
  GI50: 16.7 µM (inactive)
NCI-H226
  GI50: > 100 µM (inactive)
NCI-H23
  GI50: > 100 µM (inactive)
NCI-H460
  GI50: > 100 µM (inactive)
NCI-H522
  GI50: 17.8 µM (inactive)
NCI/ADR-RES
  GI50: 51.8 µM (inactive)
OVCAR-3
  GI50: 48.3 µM (inactive)
OVCAR-5
  GI50: > 100 µM (inactive)
OVCAR-8
  GI50: > 100 µM (inactive)
PC-3
  GI50: > 100 µM (inactive)
RPMI-8226
  GI50: 36.5 µM (inactive)
SF-268
  GI50: 42.6 µM (inactive)
SF-295
  GI50: > 100 µM (inactive)
SF-539
  GI50: > 10 µM (inactive)
SK-MEL-28
  GI50: > 100 µM (inactive)
SK-MEL-2
  GI50: > 100 µM (inactive)
SK-MEL-5
  GI50: 67.5 µM (inactive)
SK-OV-3
  GI50: > 100 µM (inactive)
SN12C
  GI50: > 100 µM (inactive)
SNB-19
  GI50: > 100 µM (inactive)
SNB-75
  GI50: 81.1 µM (inactive)
SR
  GI50: 21 µM (inactive)
SW-620
  GI50: 15.8 µM (inactive)
T47D
  GI50: 39.7 µM (inactive)
U-251
  GI50: > 100 µM (inactive)
UACC-257
  GI50: > 100 µM (inactive)
UACC-62
  GI50: 55.1 µM (inactive)
UO-31
  GI50: > 100 µM (inactive)

## C=C1CC2CCCC12C=O (configuration not stated)
786-0
  GI50: > 10 µM (inactive)
A549
  GI50: > 10 µM (inactive)
ACHN
  GI50: > 10 µM (inactive)
BT-549
  GI50: > 10 µM (inactive)
CAKI-1
  GI50: > 10 µM (inactive)
CCRF-CEM
  GI50: > 10 µM (inactive)
COLO 205
  GI50: > 10 µM (inactive)
DU-145
  GI50: > 10 µM (inactive)
HCC 2998
  GI50: > 10 µM (inactive)
HCT-116
  GI50: > 10 µM (inactive)
HCT-15
  GI50: > 10 µM
HL-60
  GI50: > 10 µM (inactive)
HOP-62
  GI50: > 10 µM (inactive)
HOP-92
  GI50: > 10 µM (inactive)
HT-29
  GI50: > 10 µM (inactive)
Hs-578T
  GI50: > 10 µM (inactive)
IGROV-1
  GI50: > 10 µM (inactive)
K562
  GI50: > 10 µM (inactive)
KM12
  GI50: > 10 µM (inactive)
LOX IMVI
  GI50: > 10 µM (inactive)
M14
  GI50: > 10 µM (inactive)
MCF7
  GI50: > 10 µM (inactive)
MDA-MB-231
  GI50: > 10 µM (inactive)
MDA-MB-435
  GI50: > 10 µM (inactive)
MDA-N
  GI50: > 10 µM (inactive)
MOLT-4
  GI50: > 10 µM (inactive)
Malme-3M
  GI50: > 10 µM (inactive)
NCI-H23
  GI50: > 10 µM (inactive)
NCI-H522
  GI50: > 10 µM (inactive)
NCI/ADR-RES
  GI50: > 10 µM (inactive)
OVCAR-3
  GI50: > 10 µM (inactive)
OVCAR-4
  GI50: > 10 µM (inactive)
OVCAR-8
  GI50: > 10 µM (inactive)
PC-3
  GI50: > 10 µM (inactive)
RPMI-8226
  GI50: > 10 µM (inactive)
SF-268
  GI50: > 10 µM (inactive)
SF-295
  GI50: > 10 µM (inactive)
SF-539
  GI50: > 10 µM (inactive)
SK-MEL-28
  GI50: > 10 µM (inactive)
SK-MEL-5
  GI50: > 10 µM (inactive)
SK-OV-3
  GI50: > 10 µM (inactive)
SN12C
  GI50: > 10 µM (inactive)
SNB-19
  GI50: > 10 µM (inactive)
SNB-75
  GI50: > 10 µM (inactive)
SR
  GI50: > 10 µM (inactive)
SW-620
  GI50: > 10 µM (inactive)
T47D
  GI50: > 10 µM (inactive)
TK-10
  GI50: > 10 µM (inactive)
U-251
  GI50: > 10 µM (inactive)
UACC-257
  GI50: > 10 µM (inactive)
UACC-62
  GI50: > 10 µM (inactive)
